From US12551424B2, “Oil-in-water type emulsification composition containing UV wavelength conversion substance” (Shiseido Company, Ltd., priority 2019, dated 2026)

Key:
[1] = tested on: Human dermal fibroblasts; assay: Cell activity (AlamarBlue) after UV irradiation through a solution of the UV wavelength conversion substance; format: cell-based; conditions: UV 0, 10, 25, 50, 75 or 100 mJ/cm^2, FIG. 3
Description: (§1) A cell sample was prepared as follows: • 1. Human dermal fibroblasts and human skin keratinocytes purchased from Kurabo Industries Ltd. were used. A cell suspension (1 mL) stored in liquid nitrogen was thawed in a water bath (37° C.) to an extent that small ice pellets remained, and then diluted with 9 mL of warm medium. • 2. The diluted suspension was mixed gently and then transferred to a T75 flask and incubated overnight at 37° C. • 3. The next day, the medium was replaced with 10 mL of fresh medium. • 4. The medium was replaced periodically (once every 2 days for fibroblasts and once every 2 to 3 days for keratinocytes) and cell proliferation was continued. Meanwhile, the cells were observed using a microscope, and it was confirmed that the cells grew in the correct form. • 5. After the cells reached about 80% confluence, the cells were passaged. The cells were passaged by washing the cells once with 10 mL of warm PBS, adding 5 mL of warm trypsin to a T75 flask, covering the bottom of the flask with a trypsin solution, followed by aspirating at room temperature for 1 minute. • 6. The flask was allowed to stand in an oven at 37° C. for (maximum) 2 minutes for fibroblasts and (maximum) 7 minutes for keratinocytes. The cells were observed using a microscope and confirmed to be small and oval. • 7. Thereafter, the side of the T75 flask was lightly tapped to release the cells. […]

[2] = tested on: Human dermal fibroblasts; assay: Restoration of cell activity decreased by prior UV irradiation (AlamarBlue); format: cell-based; conditions: FIG. 5
Description: as §1

C-phycocyanin
cell activity (relative fluorescence intensity) ([1]; 0.4% C-phycocyanin solution): the decrease in cell activity was suppressed | cell activity (relative fluorescence intensity) ([1]; 2% C-phycocyanin solution): the cell activity was even increased | cell activity recovery effect, comparison of concentrations ([2]; 0.4% versus 2% C-phycocyanin after 400 mJ/cm^2 pre-irradiation): equivalent at concentrations of 0.4% and 2% | cell activity (relative fluorescence intensity) of cells with once decreased activity ([2]; pre-irradiation 400 mJ/cm^2 without substance, then UV 0-200 mJ/cm^2 through 0.4% or 2% C-phycocyanin): cell activity was recovered
